# Data published in publication PMC10946790, “A Functional Chemiluminescent Probe for in Vivo Imaging of Natural Killer Cell Activity Against Tumours” (Angewandte Chemie (Weinheim an Der Bergstrasse, Germany), 2021).
# Where a SMILES comes first, the peptide text is derived from it. The star is where a group is joined. AMC = Cc1cc(=O)oc2cc(N*)ccc12
# Molecular target: T1, hr‐granzyme B (Homo sapiens, UniProt P10144)
# T1 construct: in the absence and presence of active human recombinant (hr)‐granzyme B
# Test: Time-course signal-to-noise ratios after reaction with granzyme B
# Format: biochemical
# Settings: probe 25 μM, hr-granzyme B 20 nM, aqueous buffer, 37 °C, over 30 minutes; mean ± SEM, n=6
# Procedure: In vitro characterisation assays. Enzymatic assays were run in a 384-well format in a PCR opaque microplate (Thermo Scientific). All experiments were performed at least in triplicate. Dilutions and reactions using human GZM B and human neutrophil elastase were prepared in 50 mM Tris-HCl and 100 mM NaCl (pH 7.4). GZM A assays were performed in 25 mM HEPES, 0.1% CHAPS and 10 mM DTT (pH 7.5). Dilutions and incubations with CASP8 and CASP9 were prepared in 50 mM HEPES, 100 mM NaCl, 0.1% Triton X-100, 10 mM DTT, 1 mM EDTA and 10% glycerol (pH 7.4). Any other tested biomolecules were prepared in PBS. Proteolytic activity was determined by calculating the fold change in chemiluminescence signal (or fluorescence signal in the case of Ac - IEPD-AMC) over background signal provided by the corresponding dilution of the probes with the enzyme using a spectrophotometer (Synergy H1 Hybrid Reader, BioTek) at 37°C.
# Unless otherwise stated, probes were utilized at a concentration of 100 μM. Enzyme concentration used: 20 nM (except CASP9, which was used at 200 nM) and all other biomolecules were tested at 100 μM. In the case where an inhibitor was used, the enzyme was pre-incubated for 1 h with the inhibitor (100 µM) before addition of probe 1.
# Cell culture. […]
# T1 sequence (P10144 21-247): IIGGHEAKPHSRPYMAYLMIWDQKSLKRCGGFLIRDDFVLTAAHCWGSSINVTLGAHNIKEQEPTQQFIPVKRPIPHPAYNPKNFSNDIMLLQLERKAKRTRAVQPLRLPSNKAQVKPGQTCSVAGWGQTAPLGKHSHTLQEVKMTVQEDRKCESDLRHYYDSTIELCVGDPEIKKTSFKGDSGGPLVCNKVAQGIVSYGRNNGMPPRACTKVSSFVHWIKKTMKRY
compound,measurement,value
CC[C@H](C)[C@H](NC(C)=O)C(=O)N[C@@H](CCC(=O)O)C(=O)N1CCC[C@H]1C(=O)N[C@@H](CC(=O)O)C(=O)Nc1ccc2c(C)cc(=O)oc2c1 [Ac‐IEPD‐AMC] (Ac-IEPD-{AMC}),"Signal‐to‐noise (S/N) ratio, fluorescence",under 5
